“Also recorded” adds a separate entry of the source.
Assays:
[1] = system: Skw3 control transductant UNO H13 (Sulfamethoxazole-allergic donor); assay: TCR-transductant stimulation assay, control transductant UNO H13; assay type: cell-based, human; conditions: 24 h, heterologous EBV-transformed B cells, no drug 5.2
Source text: (§1) Skw3 cell lines (Leibniz Institute DSMZ, Brunswick, Germany, (50)) were transduced as described previously (51). […] The resulting retroviruses were used to transduce the TCR-defective Skw3 cell line, which also expresses the human CD8 coreceptor. The TCR-transduced cells outgrowing in selective medium were picked, and the expression of the correct TCR α and β was further assessed by flow cytometry, using a FACS-Canto-I device (BD-Biosciences, San Jose, CA, USA). The transduced cells with stable TCR expression were selected for assessment of reactivity and specificity, which was measured by TCR-induced CD69 expression. Skw3 cell lines expressing the cognate TCR α and β chains were cocultured with autologous EBV-transformed B-lymphoblastoid cell lines (52) at 1:2 ratio at 37° C. Tested drugs were added to the cocultures with the indicated concentrations. After 24 h, cells were stained with anti-human CD3 (Biolegend) and anti-human CD69 (Biolegend) and analysed by flow cytometry. […] Experiments were repeated at least 2 times. […] Heterologous EBV-transformed B cells were also used to stimulate control transductants.

[2] = system: Skw3 control transductant 17D (Abacavir-allergic donor); assay: TCR-transductant stimulation assay, control transductant 17D; assay type: cell-based, human; conditions: control 17D, 24 h, heterologous EBV-transformed B cells, no drug 1.4
Source text: as §1

[3] = system: TCRαβ Skw3 transfectant C2 (TCR of top clone of patient TEN-7); assay type: cell-based, human; conditions: 24 h, heterologous PBMCs from healthy donors, no drug 31.7
Source text: Skw3 cell lines (Leibniz Institute DSMZ, Brunswick, Germany, (50)) were transduced as described previously (51). […] The resulting retroviruses were used to transduce the TCR-defective Skw3 cell line, which also expresses the human CD8 coreceptor. The TCR-transduced cells outgrowing in selective medium were picked, and the expression of the correct TCR α and β was further assessed by flow cytometry, using a FACS-Canto-I device (BD-Biosciences, San Jose, CA, USA). The transduced cells with stable TCR expression were selected for assessment of reactivity and specificity, which was measured by TCR-induced CD69 expression. Skw3 cell lines expressing the cognate TCR α and β chains were cocultured with autologous EBV-transformed B-lymphoblastoid cell lines (52) at 1:2 ratio at 37° C. Tested drugs were added to the cocultures with the indicated concentrations. After 24 h, cells were stained with anti-human CD3 (Biolegend) and anti-human CD69 (Biolegend) and analysed by flow cytometry. […] Experiments were repeated at least 2 times. […] Then, the productive rearranged TCRα and TCRβ chains were transduced into Skw3 cells, a TCR defective lymphoma line (28) (data not shown). […] The following day, we measured CD69 expression at the surface of Skw3 cells, as marker for TCR stimulation. […]

[4] = system: human CD45+ cells (PBMCs from a TEN patient); assay: Human PBMC expansion in lamotrigine- versus vehicle-treated NSG recipient mice; assay type: in vivo, mouse
Method: NSG animals were adoptively transferred at day 0 with 1.10^6 millions PBMCs collected from a TEN patient, 1 year after disease recovery. Animals were then administrated with lamotrigine (the culprit drug; 0.1 mg/kg/day) or vehicle by oral gavage, every day, from day 4. Results depict the kinetic of human CD45+ cell expansion measured by flow cytometry in the blood of NSG mice throughout the protocol, or the spleen at day 29. Results are expressed as mean and individual % of humanization, calculated according to the following formula: % human CD45+ cells/% (mouse+human) CD45+ cells. Six mice per group were used in this experiment. NSG animals were adoptively transferred at day 0 with 1.10^6 millions PBMCs collected from a TEN patient (1 year after disease recovery) or from a healthy donor. Animals were then administrated with lamotrigine (the culprit drug; 0.1 mg/kg/day) or vehicle, by oral gavage every day, from day 4. Results depict the expansion of human CD45+ cells measured by flow cytometry in the spleen of NSG mice, 29 days after cell transfer. Results are expressed as mean and individual % of humanization, calculated according to the following formula: % human CD45+ cells/% (mouse+human) CD45+ cells. Six mice per group were used in this experiment. NSG animals were adoptively transferred at day 0 with 1.10^6 millions PBMCs collected from a TEN patient (1 year after disease recovery). Animals were then administrated with lamotrigine (the culprit drug; 0.1 mg/kg/day), by oral gavage every day, from day 4. Results depict the expression of CD38 (A) and Granzyme B and Granulysin (B) markers on CD4+ and CD8+ T cells as measured by flow cytometry in the spleen of NSG mice, 43 days after cell transfer. Model description: We generated a surrogate model of TEN disease in mouse, by reconstituting NSG animals with 1.10^6 millions of peripheral blood mononuclear cells (PBMCs) collected from a TEN patient, 1 year after disease recovery. The patients' T cells were then reactivated with the offending drug delivered to animals by oral gavage.

NK cells = conditions: preclinical data; cited from earlier work
[5] = system: relapsed or refractory multiple myeloma; conditions: monotherapy or with dexamethasone or dexamethasone and an immunomodulatory drug; RRMM; doses up to 16 mg/kg intravenous infusion; cited from earlier work
[6] = system: relapsed or refractory multiple myeloma; conditions: cited from earlier work
[7] = system: plasmablasts and NK cells; conditions: cited from earlier work

CC(C)Cc1ccc(C(C)C(=O)O)cc1 (centres unmarked) [Ibuprofen]
% of CD69 expression in CD3+ transfectants, Concentration 1 ([1]; Ibuprofen 20 μg/ml): 4.6%
% of CD69 expression in CD3+ transfectants, Concentration 2 ([1]; Ibuprofen 100 μg/ml): 10.5%
% of CD69 expression in CD3+ transfectants, Concentration 3 ([1]; Ibuprofen 200 μg/ml): 12.4%

COc1ccnc(C[S+]([O-])c2nc3ccc(OC(F)F)cc3[nH]2)c1OC (centres unmarked) [Pantoprazole]
% of CD69 expression in CD3+ transfectants, Concentration 1 ([2]; Abacavir 1 μg/ml, Pantoprazole 12.5 μg/ml): 1.8%
% of CD69 expression in CD3+ transfectants, Concentration 2 ([2]; Abacavir 10 μg/ml, Pantoprazole 25 μg/ml): 1.8%
% of CD69 expression in CD3+ transfectants, Concentration 3 ([2]; Abacavir 20 μg/ml, Pantoprazole 50 μg/ml): 1.7%
% of CD69 expression in CD3+ transfectants, Concentration 2 ([3]; Pantoprazole 10 μg/ml): 40.1%
% of CD69 expression in CD3+ transfectants, Concentration 3 ([3]; Pantoprazole 50 μg/ml): 47.4%

Nc1nnc(-c2cccc(Cl)c2Cl)c(N)n1 [lamotrigine]
expanded CD8+ T cells expressing CD38, Granzyme B and Granulysin markers ([4]; lamotrigine 0.1 mg/kg/day from day 4, spleen, 43 days after cell transfer (FIG. 11)): significant part
number of animals with a high % of humanization, culprit drug group versus vehicle group ([4]; lamotrigine 0.1 mg/kg/day oral gavage from day 4, TEN patient PBMCs, blood and spleen, day 29 (FIG. 9)): largely superior
proliferation/expansion of TEN PBMCs versus healthy donor PBMCs in response to lamotrigine ([4]; lamotrigine 0.1 mg/kg/day oral gavage from day 4, spleen, 29 days after cell transfer (FIG. 10)): Preferential expansion of TEN PBMCs; also recorded: superior ability of TEN cells to proliferate

MOR202: fully human anti-CD38 antibody being developed by Morphosys (CAS Number 2197112-39-1)
effect on NK cells (NK cells): reduces NK cells
safety and efficacy [5]: safe and effective

TAK-079: CD38-binding fully human IgG 1 λ mAb being developed by Takeda
objective response rate ([6]; heavily pre-treated patients with RRMM, subcutaneous injection): 43%
safety/tolerability in patients ([6]; human, in vivo, sc): safe and well-tolerated
tolerability in healthy populations ([7]; healthy populations): well tolerated
depletion of plasmablasts and NK cells ([7]; subcutaneous injection): more durable in depleting plasmablasts and NK cells

Source: patent US20240003879A1, “METHODS FOR DIAGNOSIS AND MONITORING OF TOXIC EPIDERMAL NECROLYSIS” (INSERM (INSTITUT NATIONAL DE LA SANTÉ ET DE LA RECHERCHE …, priority 2020, published 2024)
